Assay results as given in publication PMC7823583, “Discovery of Potent Dual EGFR/HER2 Inhibitors Based on Thiophene Scaffold Targeting H1299 Lung Cancer Cell Line” (Pharmaceuticals, 2020).

Assays:
[1] = target: EGFR (Homo sapiens, UniProt P00533); details: earlier study of the group; read-out: IC50 against EGFR; cited from earlier work
[2] = tested on: NSCLC cell line H1299; assay: In vitro cytotoxic activity against H1299, sulfo-rhodamine B (SRB) assay; details: Homo sapiens, NCI-H1299, 48 h, read-out: IC50 against H1299
Method: The potential cytotoxic activity of the target compounds on H1299 lung cancer cell line was tested using sulfo-rhodamine B (SRB) assay according to Skehan method [20]. Single cells were plated in 96-multiwell plates for 24 h before treatment with the compounds. A single concentration of the tested compounds was added to the cell monolayer. Monolayer cell was incubated with the compounds for 48 h at 37 °C and in atmosphere of 5% CO2. After 48 h, cell was fixed, washed and stained with Sulforhodamine-B stain. Acetic acid was then used to wash excess stain and attached stain was recovered with Tris ethylenediaminetetraacetic acid (EDTA) buffer. Color intensity was measured in an enzyme-linked immunosorbent assay (ELISA).

[3] = target: HER2 (Homo sapiens, UniProt P04626); assay: HER2 kinase inhibitory assay (Kinase-Glo Plus luminescence kinase assay); format: biochemical; details: read-out: IC50 against HER2
Sequence of HER2 (P04626 23-1255): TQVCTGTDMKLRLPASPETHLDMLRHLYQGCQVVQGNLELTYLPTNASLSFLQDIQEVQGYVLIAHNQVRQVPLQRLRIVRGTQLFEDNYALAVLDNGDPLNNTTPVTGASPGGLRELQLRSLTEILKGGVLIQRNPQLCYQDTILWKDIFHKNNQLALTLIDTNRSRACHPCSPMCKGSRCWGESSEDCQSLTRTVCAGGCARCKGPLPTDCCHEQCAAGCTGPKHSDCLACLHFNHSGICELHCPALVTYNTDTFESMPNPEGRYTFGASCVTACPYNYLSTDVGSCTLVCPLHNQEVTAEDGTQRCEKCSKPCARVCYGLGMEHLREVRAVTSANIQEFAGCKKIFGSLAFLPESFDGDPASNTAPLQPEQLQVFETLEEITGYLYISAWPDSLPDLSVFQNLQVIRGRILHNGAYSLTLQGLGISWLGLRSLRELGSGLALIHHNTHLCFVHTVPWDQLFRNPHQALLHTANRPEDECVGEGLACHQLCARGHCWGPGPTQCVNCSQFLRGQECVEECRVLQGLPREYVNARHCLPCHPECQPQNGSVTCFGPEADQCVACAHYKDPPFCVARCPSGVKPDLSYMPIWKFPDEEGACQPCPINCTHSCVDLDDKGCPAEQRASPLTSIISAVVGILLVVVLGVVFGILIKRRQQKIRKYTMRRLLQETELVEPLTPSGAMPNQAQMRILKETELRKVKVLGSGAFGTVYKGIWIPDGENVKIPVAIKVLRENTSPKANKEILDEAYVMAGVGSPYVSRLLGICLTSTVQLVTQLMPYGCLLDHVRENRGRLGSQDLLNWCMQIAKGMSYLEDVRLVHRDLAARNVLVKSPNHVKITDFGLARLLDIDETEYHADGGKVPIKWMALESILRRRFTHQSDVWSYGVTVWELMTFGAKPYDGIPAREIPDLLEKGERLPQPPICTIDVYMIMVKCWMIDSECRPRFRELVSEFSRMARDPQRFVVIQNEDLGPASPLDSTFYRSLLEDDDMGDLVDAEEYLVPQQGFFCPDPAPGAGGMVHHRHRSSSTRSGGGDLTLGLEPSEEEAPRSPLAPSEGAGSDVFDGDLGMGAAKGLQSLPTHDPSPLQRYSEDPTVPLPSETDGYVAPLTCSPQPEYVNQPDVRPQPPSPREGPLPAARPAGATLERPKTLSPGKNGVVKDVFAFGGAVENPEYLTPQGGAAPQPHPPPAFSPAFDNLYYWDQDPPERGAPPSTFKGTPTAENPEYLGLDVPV

Sequence of EGFR (P00533 25-1210): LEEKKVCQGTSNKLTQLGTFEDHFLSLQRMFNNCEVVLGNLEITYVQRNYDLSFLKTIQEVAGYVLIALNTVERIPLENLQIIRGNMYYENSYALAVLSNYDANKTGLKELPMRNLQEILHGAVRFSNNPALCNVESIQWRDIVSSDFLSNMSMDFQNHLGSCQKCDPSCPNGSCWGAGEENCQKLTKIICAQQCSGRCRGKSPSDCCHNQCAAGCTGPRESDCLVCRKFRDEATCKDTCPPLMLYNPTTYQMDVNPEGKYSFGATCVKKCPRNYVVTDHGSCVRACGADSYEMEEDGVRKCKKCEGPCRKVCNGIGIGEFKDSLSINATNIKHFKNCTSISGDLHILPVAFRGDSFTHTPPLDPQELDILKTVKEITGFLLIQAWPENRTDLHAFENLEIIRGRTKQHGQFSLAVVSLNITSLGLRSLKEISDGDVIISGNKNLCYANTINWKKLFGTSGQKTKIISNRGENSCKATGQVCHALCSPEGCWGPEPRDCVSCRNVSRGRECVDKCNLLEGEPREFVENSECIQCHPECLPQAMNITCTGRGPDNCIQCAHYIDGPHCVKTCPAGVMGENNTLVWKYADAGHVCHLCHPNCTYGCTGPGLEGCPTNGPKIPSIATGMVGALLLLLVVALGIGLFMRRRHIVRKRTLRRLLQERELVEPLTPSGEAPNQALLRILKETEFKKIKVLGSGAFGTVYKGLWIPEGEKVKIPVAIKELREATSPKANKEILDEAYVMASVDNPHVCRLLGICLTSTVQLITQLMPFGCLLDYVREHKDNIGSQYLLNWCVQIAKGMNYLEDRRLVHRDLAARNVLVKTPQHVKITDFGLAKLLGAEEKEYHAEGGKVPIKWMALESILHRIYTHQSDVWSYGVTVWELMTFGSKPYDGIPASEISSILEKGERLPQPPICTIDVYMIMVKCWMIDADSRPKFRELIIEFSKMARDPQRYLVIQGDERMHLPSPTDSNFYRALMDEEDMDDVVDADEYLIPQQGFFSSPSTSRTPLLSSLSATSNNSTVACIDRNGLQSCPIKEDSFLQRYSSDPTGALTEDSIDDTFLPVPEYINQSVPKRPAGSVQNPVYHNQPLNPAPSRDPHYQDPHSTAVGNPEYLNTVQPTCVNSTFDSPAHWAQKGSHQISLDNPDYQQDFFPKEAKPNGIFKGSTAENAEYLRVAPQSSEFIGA

Row | IC50 [3] | Structure (SMILES) | IC50 [1] | IC50 [2]
1 |  | Oc1ccc(Nc2nnnc3sc4c(c23)CCC4)cc1 [Compound 8, reference compound] | ~38 nM | 
2 |  | Nc1cccc(Nc2nnnc3sc4c(c23)CCC4)c1 [Compound 13a, 3-(5,6-dihydro-7H-cyclopenta[4:5]thieno[2,3-d][1,2,3]triazin-4-ylamino)benzene-1,3-diamine] |  | 28.8 nM
3 |  | Nc1cccc(Nc2nnnc3sc4c(c23)CCCC4)c1 [Compound 13b, 3-(5,6,7,8-Tetrahydro-7H-cyclohexa[4:5]thieno[2,3-d][1,2,3]triazin-4ylamino)benzene-1,3-diamine] | ~0.33 nM | 25 nM
4 |  | C(=Nc1cccc(Nc2nnnc3sc4c(c23)CCC4)c1)c1ccccc1 [Compound 14a, 3-(5,6-Dihydro-7H-cyclopenta[4:5]thieno[2,3-d][1,2,3]triazin-4-ylamino)-N-benzylidenebenzene-1,3-diamine] |  | 25.7 nM
5 |  | Oc1ccccc1C=Nc1cccc(Nc2nnnc3sc4c(c23)CCC4)c1 [Compound 15a, 3-(5,6-Dihydro-7H-cyclopenta[4:5]thieno[2,3-d][1,2,3]triazin-4-ylamino)-N-(2-hydroxybenzylidene)benzene-1,3-diamine] |  | 32.8 nM
6 |  | Oc1ccccc1C=Nc1cccc(Nc2nnnc3sc4c(c23)CCCC4)c1 [Compound 15b, 3-(5,6,7,8-Tetrahydro-7H-cyclohexa[4:5]thieno[2,3-d][1,2,3]triazin-4-ylamino)-N-(2-hydroxybenzylidene)benzene-1,3-diamine] |  | 34 nM
7 |  | O=[N+]([O-])c1cccc(C=Nc2cccc(Nc3nnnc4sc5c(c34)CCCC5)c2)c1 [Compound 17b, 3-(5,6,7,8-Tetrahydro-7H-cyclohexa[4:5]thieno[2,3-d][1,2,3]triazin-4-ylamino)-N-(3-nitrobenzylidene)benzene-1,3-diamine] |  | 38.1 nM
8 | 0.14 nM | N#Cc1c(NC(=O)CNc2n[nH]c3ncccc23)sc2c1CCCC2 [Compound 21a, 2-(1H-Pyrazolo[3,4-b]pyridin-3-ylamino)-N-(3-cyano4,5,6,7-tetrahydrobenzo[b]thiophen-2-yl)acetamide] |  | 12.5 nM
9 |  | Cc1cc(C)c2c(NCC(=O)Nc3sc4c(c3C#N)CCCC4)n[nH]c2n1 [Compound 21b, N-(3-Cyano-4,5,6,7-tetrahydrobenzo[b]thiophen-2-yl)-2-(4,6-dimethyl-1H-pyrazolo[3,4-b]pyridin-3-ylamino)acetamide] |  | 13.7 nM
10 |  | N#Cc1c(NC(=O)CNc2onc3ncccc23)sc2c1CCCC2 [Compound 23, N-(3-Cyano-4,5,6,7-tetrahydrobenzo[b]thiophen-2-yl)-2-(isoxazolo[3,4-b]pyridin-3-ylamino)acetamide] |  | 18.4 nM
11 |  | N#Cc1c(NC(=O)CNN=Cc2cccc([N+](=O)[O-])c2)sc2c1CCCC2 [Compound 25a, N-(3-Cyano-4,5,6,7-tetrahydrobenzo[b]thiophen-2-yl)-2-(2-(3-nitrobenzylidene)hydrazinyl)acetamide] |  | 18.5 nM
12 |  | COc1ccc(C=NNCC(=O)Nc2sc3c(c2C#N)CCCC3)cc1 [Compound 25b, N-(3-Cyano-4,5,6,7-tetrahydrobenzo[b]thiophen-2-yl)-2-(2-(4-methoxybenzylidene)hydrazinyl)acetamide] |  | 18.5 nM
